We go through 5 compounds from US8592421B2, “Cyclic bioisosters of purine system derivatives and a pharmaceutical composition based thereon” (priority 2003, dated 2013).

Data set [1] is described as follows: Electrochemical activity: polarographic reduction on mercury dripping electrode. The format is physicochemical. As to conditions: for number of electrons participating in the reduction reaction: calculated with Geirovsky-Ilkovich equation; for i: 2.0% sodium chloride background, 9·10^−4 M; for i / −E1/2: 37° C., forward trace, average for the group of compounds; for −E1/2: vs SCE; for half-wave potential more positive at reverse stroke compared to forward stroke: polarograms of reverse stroke. As to the method:
The study was carried out on a general-purpose polarograph PU-1 with a two-coordinate recorder of the “LKD” type using a three-electrode thermostatically controlled polarographic cell and mercury dripping electrode (MDE) with forced separation of the drop and a dropping period of 0.5 second. A platinum wire was used as an auxiliary electrode and a saturated calomel electrode (SCE) was used as a control electrode.
2.0% solutions of sodium chloride having pH 7.0, 7.2, 7.4, 7.6 were used as a background; the pH values of the background solution were corrected by a solution of sodium hydroxide. The polarographic cell was filled with 5.0 ml of the background solution and for 5 minutes was purged with nitrogen for removing the dissolved oxygen. Then 0.5 ml of solution of the studied substance was added to the background solution, and the polarogram was recorded as a polarographic wave. The concentration of the compounds in the polarographic cell was 9·10^−4 M.
The pH was measured on the pH-meter with an accuracy of +0.05 pH units. The polarographic measurements were carried out at a temperature of 37° C. The recording of polarograms of the investigated materials was effected under conditions of DC current at a scanning rate of the potential 10.0 mV/s with a active scanning stroke from a potential 0 to −0.5 V and sweep retrace from a −0.5 V to 0. The electric-current sensitivity was 5.0 mkA. The scale by the coordinate of the potentials was 50.0 mV/cm. The values of potentials of the half-wave E1/2 of the investigated materials are given with respect to the SCE potential.
The polarogram parameters such as a limiting current ilim and E1/2 were determined by the graphic method. The number of electrons participating in the reaction was calculated on the basis of the analysis of the polarographic wave using the Geirovsky-Ilkovich equation.
The calculation of the number of electrons participating in the reduction reaction was effected using the Geirovsky-Ilkovich equation: […]

The nature of data set [2]: Chronic toxicity of suppositories: indexes of peripheral blood. Type of data set: in vivo, rats. Also noted: Thrombocytes: unit not given here. As to conditions: male rats, suppositories rectally; for Basophiles / Juveniles: 1 month/2 months (one value given), control 0.

As for `O=c1[nH]n([C@@H]2O[C@H](CO)[C@@H](O)[C@H]2O)c(=O)c2ncccc12.[Na]` [Compound 1, sodium salt of 7-(β-O-ribofuranosile)pyrido[2,3-1]-6H-pyridazine-5,8-dione sodium salt], the “number of electrons participating in the reduction reaction” value (shortened to “number … in the reduction reaction”) in data set [1] is reported as 3.72. Besides, the i in data set [1] (pH 7.0) was determined as 0.26 ± 0.04 mkA; in data set [1] (pH 7.2), 0.31 ± 0.02 mkA; in data set [1] (pH 7.4) it was 0.27 ± 0.03 mkA; in data set [1] (pH 7.6) it was 0.30 ± 0.01 mkA. The “−E1/2” value in data set [1] (pH 7.0) is listed as 0.11 ± 0.02 V; in data set [1] (pH 7.2), 0.11 ± 0.03 V; in data set [1] (pH 7.4), 0.105 ± 0.01 V; in data set [1] (pH 7.6), 0.105 ± 0.02 V. Moreover, the “half-wave potential more positive at reverse stroke compared to forward stroke” value in data set [1] turned out to be 25.0 mV.
Consider `O=c1[nH][nH]c(=O)c2nccnc12.[Na]` [Compound 26, sodium salt of pyrazine[2,3-d]-6H-pyridazine-5,8-dione], for which the “half-wave potential more positive at reverse stroke compared to forward stroke” value in data set [1] is given as 27.0 mV.
For the compound `O=c1[nH]n([C@@H]2O[C@H](CO)[C@@H](O)[C@H]2O)c(=O)c2ncnc(O)c12.[Na]` [Compound 33, sodium salt of 4-hydroxy-7-(β-D-ribofuranosile)pyrimido[4,5-d]-6H-pyridazine-5,8-dione], in data set [1], the “number … in the reduction reaction” value was 3.5. In addition, the i is given as 0.30 ± 0.05 mkA in data set [1] (pH 7.0), 0.26 ± 0.02 mkA in data set [1] (pH 7.2), 0.30 ± 0.03 mkA in data set [1] (pH 7.4) and 0.30 ± 0.02 mkA in data set [1] (pH 7.6). In addition, the “−E1/2” value in data set [1] (pH 7.0) worked out at 0.08 ± 0.02 V; in data set [1] (pH 7.2), 0.085 ± 0.015 V; in data set [1] (pH 7.4), 0.085 ± 0.02 V; in data set [1] (pH 7.6) it was 0.09 ± 0.02 V. In addition, in data set [1], the “half-wave potential more positive at reverse stroke compared to forward stroke” value was 27.0 mV.
In the case of `O=C([O-])c1ncnc2c(=O)n([C@@H]3O[C@H](CO)[C@@H](O)[C@H]3O)[nH]c(=O)c12.[Na+]` [Compound 34, sodium salt of 4-carboxy-7-(β-D-ribofuranosile)pyrimido[4,5-D]-6H-pyridazine-5,8-dione], the Basophiles in data set [2] (50 mg/kg) and in data set [2] (500 mg/kg) was 0% in each case. Also, the Juveniles in data set [2] (50 mg/kg) and in data set [2] (500 mg/kg) was 0% throughout. Moreover, the Stab neutrophil in data set [2] (50 mg/kg, 1 month, control 0.8 ± 0.4) is reported as 1.0 ± 0.4%; in data set [2] (50 mg/kg, 2 months, control 2.4 ± 0.4) it was 1.8 ± 0.5%; in data set [2] (500 mg/kg, 1 month, control 0.8 ± 0.4) it was 0.9 ± 0.2%; in data set [2] (500 mg/kg, 2 months, control 2.4 ± 0.4), 1.4 ± 0.3%. Besides, the REE worked out at 1.8 ± 0.5 mm/h in data set [2] (50 mg/kg, 1 month, control 2.2 ± 0.4); 1.7 ± 0.3 mm/h in data set [2] (50 mg/kg, 2 months, control 1.4 ± 0.2); 2.0 ± 0.4 mm/h in data set [2] (500 mg/kg, 1 month, control 2.2 ± 0.4); 1.8 ± 0.2 mm/h in data set [2] (500 mg/kg, 2 months, control 1.4 ± 0.2). Also, the Reticulocytes stood at 2.7 ± 0.1% in data set [2] (50 mg/kg, 1 month, control 2.8%0.3); 2.9 ± 0.2% in data set [2] (50 mg/kg, 2 months, control 2.9 ± 0.2); 3.2 ± 0.2% in data set [2] (500 mg/kg, 1 month, control 2.8%0.3); 3.5 ± 0.3% in data set [2] (500 mg/kg, 2 months, control 2.9 ± 0.2). In addition, the Eosinophiles was determined as 3.5 ± 1.0% in data set [2] (50 mg/kg, 1 month, control 4.0 + 0.3); 4.1 ± 0.4% in data set [2] (50 mg/kg, 2 months, control 4.4 + 1.2); 3.0 ± 0.9% in data set [2] (500 mg/kg, 1 month, control 4.0 + 0.3); 3.9 ± 1.4% in data set [2] (500 mg/kg, 2 months, control 4.4 + 1.2). In addition, the Erythrocytes in data set [2] (50 mg/kg, 1 month, control 5.6 ± 0.1) was 5.6 ± 0.1 mln/mm^3; in data set [2] (50 mg/kg, 2 months, control 6.1 ± 0.1), 6.1 ± 0.2 mln/mm^3; in data set [2] (500 mg/kg, 1 month, control 5.6 ± 0.1), 5.6 ± 0.2 mln/mm^3; in data set [2] (500 mg/kg, 2 months, control 6.1 ± 0.1), 6.6 ± 0.1 mln/mm^3. Moreover, the Hemoglobin in data set [2] (50 mg/kg, 1 month, control 10.5 ± 0.2) came to 10.6 ± 0.1 mmol/L; in data set [2] (50 mg/kg, 2 months, control 11.4 ± 0.2), 11.1 ± 0.2 mmol/L; in data set [2] (500 mg/kg, 1 month, control 10.5 ± 0.2), 10.6 ± 0.3 mmol/L; in data set [2] (500 mg/kg, 2 months, control 11.4 ± 0.2), 12.4 ± 0.4 mmol/L. Moreover, the Leukocyte stood at 15.9 ± 1.3 thousand/mm^3 in data set [2] (50 mg/kg, 1 month, control 17.4 ± 1.3); 17.8 ± 1.4 thousand/mm^3 in data set [2] (50 mg/kg, 2 months, control 19.1 ± 1.9); 16.9 ± 1.0 thousand/mm^3 in data set [2] (500 mg/kg, 1 month, control 17.4 ± 1.3); 22.1 ± 1.1 thousand/mm^3 in data set [2] (500 mg/kg, 2 months, control 19.1 ± 1.9). The Haematocrite turned out to be 46.9 ± 1.1% in data set [2] (50 mg/kg, 1 month, control 45.9 ± 1.7); 47.5 ± 1.2% in data set [2] (50 mg/kg, 2 months, control 45.9 ± 1.8); 48.1 ± 1.5% in data set [2] (500 mg/kg, 1 month, control 45.9 ± 1.7); 53.1 ± 1.6% in data set [2] (500 mg/kg, 2 months, control 45.9 ± 1.8). Moreover, the “Average volume of erythrocytes” value in data set [2] (50 mg/kg, 1 month, control 81.4 ± 1.7) worked out at 81.6 ± 1.9 Mkm^3; in data set [2] (50 mg/kg, 2 months, control 74.6 + 1.9), 76.7 ± 1.9 Mkm^3; in data set [2] (500 mg/kg, 1 month, control 81.4 ± 1.7), 84.1 ± 1.3 Mkm^3; in data set [2] (500 mg/kg, 2 months, control 74.6 + 1.9) it was 83.8 ± 1.5 Mkm^3. Further, the “Coagulation, time” value in data set [2] (50 mg/kg, 1 month, control 152 ± 10.2) came to 148 ± 16 s; in data set [2] (50 mg/kg, 2 months, control 316 ± 8), 321 ± 10 s; in data set [2] (500 mg/kg, 2 months, control 316 ± 8), 312 ± 9 s. Further, the Thrombocytes in data set [2] (50 mg/kg, 1 month, control 707 ± 23) stood at 670 ± 23; in data set [2] (50 mg/kg, 2 months, control 593 ± 14), 610 ± 15; in data set [2] (500 mg/kg, 1 month, control 707 ± 23), 682 ± 24; in data set [2] (500 mg/kg, 2 months, control 593 ± 14), 631 ± 26.
For `COP(=O)(OC)C(C)(C)CC(C)=O` [Dimesphosphon, dimethyl ester of 1,1-dimethyl-3-oxybuthyl of phosphonic acid, reference compound], in data set [1], the “number … in the reduction reaction” value is given as 1.6. Also, the “electrons consumed during the reduction” value in data set [1] (conclusion from calculated number) is 2. In addition, the i in data set [1] (pH 7.0) is listed as 0.10 ± 0.03 mkA; in data set [1] (pH 7.2), 0.12 ± 0.03 mkA; in data set [1] (pH 7.4) it was 0.11 ± 0.02 mkA; in data set [1] (pH 7.6), 0.11 ± 0.02 mkA. Moreover, the “−E1/2” value is on record as 0.175 ± 0.01 V in data set [1] (pH 7.0), 0.17 ± 0.02 V in data set [1] (pH 7.2), 0.18 ± 0.01 V in data set [1] (pH 7.4) and 0.18 ± 0.01 V in data set [1] (pH 7.6). In data set [1], the “half-wave potential more positive at reverse stroke compared to forward stroke” value worked out at 50.0 mV.
